{"source": "patent US4678809A", "about": "“Injectable fomulations of disulfiram for the treatment of alcoholism” (priority 1985, dated 1987)", "key": {"[1]": {"conditions": "in vivo; cited from earlier work"}, "[2]": {"system": "ethanol in breath", "assay": "Clinical study: peak ethanol concentration in the breath after alcohol challenge", "assay_type": "in vivo, human", "conditions": "compared to peak prior to treatment", "description": "(§1) The method utilizes a Pyrex glass gas-collecting tube (internal volume approximately 300 cc) sealed at both ends with Teflon® taps. A side-port sealed with a Neoprene rubber septum permits sampling of the contents. The tube is first heated to approximately 70° C. to prevent any condensation from the breath. The subject then blows forcefully into the tube, and the Teflon taps are closed at the end of expiration while the tube is still in the subject's mouth. The tube is then taken to the laboratory, where, after reheating to 70° C., a 2.0 ml sample of the breath is aspirated through the Neoprene septum with a heated syringe and immediately injected into a Gas Chromatograph, for assay of ethanol and acetaldehyde by a standard flame-ionization detection technique. (The method has been described by Phillips et al. in Alcoholism: Clinical & Experimental Research 1984; 8:293-296.)\n(§2) Each subject discontinued oral disulfiram one week before commencing the study. On day zero, each fasted from the preceding midnight, then received a standard alcohol challenge (0.15 G/kg). After eating a meal, and confirming by breath testing (with an Alco-Sensor III) that the blood ethanol concentration had fallen to zero, subject No. 1 received a dose of 1 G disulfiram subcutaneously. […]"}, "[3]": {"system": "dopamine beta hydroxylase", "conditions": "cited from earlier work"}, "[4]": {"system": "alcoholic human subjects", "assay": "Clinical study: tolerability, injection site and systemic effects", "assay_type": "in vivo", "conditions": "250 mg every morning, two subjects", "description": "(§3) Two alcoholic human subjects were studied: Subject No.1 and subject No. 2 a person.\n(§4) Each subject discontinued oral disulfiram one week before commencing the study. On day zero, each fasted from the preceding midnight, then received a standard alcohol challenge (0.15 G/kg). After eating a meal, and confirming by breath testing (with an Alco-Sensor III) that the blood ethanol concentration had fallen to zero, subject No. 1 received a dose of 1 G disulfiram subcutaneously. The drug was administered in the upper outer quadrant of the right buttock with aseptic precautions using a 14 G needle, after preparing the skin with infiltration of local anesthetic. A control injection of sterile normal saline was administered to the left buttock. Subject No. 2 received 2 G disulfiram in a similar fashion.\n(§5) A similar alcohol challenge was then repeated on days 7, 14, 21, and 28 after the injection. A physical examination was performed at each visit and the injection site examined."}, "[5]": {"assay": "Gamma irradiation: sterility and chemical stability", "assay_type": "physicochemical", "conditions": "after gamma irradiation", "source_text": "In order to be suitable for injection, the formulations must be sterile. […] Gamma irradiation was therefore used as the best available technique.\nA Best Industries Gammaradiator 100 Cs-137 irradiator was used. The disulfiram unit doses were placed in the 20×20 cm irradiation chamber, 30 cm from a 1800 curie Cesium-137 source emitting 660 KeV gamma rays. The exposure rate at the point of irradiation was 90 R/min. A filter was placed in the beam to ensure a uniform exposure at the floor of the irradiation chamber. A total exposure of 50,000 R was administered. Prior to injection, approximately 10 cc of sterile normal saline was drawn up into the syringe which was then shaken vigorously to suspend the DSF powder. The resultant slurry could then be readily injected through a wide bore (e.g. 14 gauge) needle."}, "[6]": {"system": "alcoholic humans", "conditions": "cited from earlier work"}, "[7]": {"assay": "Local and systemic toxicity after subcutaneous implantation in rats", "excerpt": "Two groups of animals were studied: a test group receiving the subcutaneous C-14-disulfiram-PLGA implant, and a control group receiving subcutaneous uncompounded C-14-disulfiram. Each group comprised five Wistar CD-1 male rats weighing between 100-120 g. After anesthesia with Penthrane (Abbott Laboratories), a slit was cut in the skin of the interscapular region and a small subcutaneous pocket was dissected, large enough for the introduction of the 1/8 inch diameter rods. Each rat received 500 mg of the 20% composite rods (containing 100 mg C-14-disulfiram and 400 mg PLFA) and the wound was closed with clips. […] No attempt was made to preserve strict asepsis during these procedures.\nAll rats were individually housed in metabolic cages to facilitate the separate collection of urine and feces. Prior to implantation, their fecal and urine samples were collected to determine background counts. Subsequent samples of all excreted urine and feces were collected on days 1,2,7,9,11, 15,18,22,25,29,32,39,46,53,60,67,74,81 and 88 after implantation. Urine samples were assayed for C-14 labelled material in a Beckman LS-230 liquid scintillation counter, and the excretion was calculated as the mass of implanted disulfiram which contained an equivalent amount of radiolabel. Feces were combusted to 14-CO2 with a Harvey Biological oxidizer and absorbed in oxyfluor-CO2 (New England Nuclear) for counting. […]"}, "[8]": {"conditions": "cited from earlier work"}, "[9]": {"system": "alcoholic human subjects", "assay": "Clinical study: subjective and clinical response to alcohol challenge", "assay_type": "in vivo", "description": "as §3, §4, §5\nSubjective responses--the subject was asked to state aloud the number in the following table which most closely accorded with the way he or she felt at the moment. This response was executed every five minutes, following the alcohol challenge, for a two hour period."}, "[10]": {"system": "aldehyde dehydrogenase", "conditions": "thiol groups, cited from earlier work"}, "[11]": {"system": "acetaldehyde in breath", "assay": "Clinical study: peak acetaldehyde concentration in the breath after alcohol challenge", "assay_type": "in vivo, human", "description": "as §1, §2"}, "[12]": {"conditions": "pre-treatment with DSF, Lundwall et al."}}, "note": "“Also recorded” adds a separate entry of the source. Where two headings read alike, the source gives them in different places.", "data": [{"smiles": "S=C=S", "note": "[carbon disulfide]", "values": [{"measurement": "excretion of metabolites", "setting": "[1]", "result": "a volatile compound excreted in the breath"}]}, {"smiles": "CCN(CC)C(=S)SSC(=S)N(CC)CC", "note": "[disulfiram]", "values": [{"measurement": "peak ethanol concentration in breath, Subject No. 1", "setting": "[2]; 1 G", "result": "elevated peak in subject No. 1, on days 7 and 14"}, {"measurement": "peak ethanol concentration in breath, Subject No. 2", "setting": "[2]; 2 G", "result": "only a mild elevation in subject No. 2 on day 7"}, {"measurement": "inhibition of dopamine beta hydroxylase", "setting": "[3]", "result": "inhibits dopamine beta hydroxylase"}, {"measurement": "adverse effects of oral disulfiram before the study", "setting": "[4]", "result": "no adverse effects"}, {"measurement": "chemical stability of irradiated samples", "setting": "[5]", "result": "did not demonstrate any reduction in the concentration of disulfiram"}, {"measurement": "end of typical response after consuming alcohol", "setting": "[6]; [12]", "result": "≤ 30", "unit": "min"}, {"measurement": "onset of typical response after consuming alcohol", "setting": "[6]; [12]", "result": "five to ten"}, {"measurement": "Disulfiram-Ethanol Reaction symptoms", "setting": "[6]; pretreatment with DSF, then ethyl alcohol, listed as DSF", "result": "nausea, palpitations, flushing, hyperventilation and hypotension"}, {"measurement": "local or systemic toxicity", "setting": "[7]", "result": "No evidence of local or systemic toxicity was observed"}, {"measurement": "solubility of DSF in water", "setting": "[8]", "result": 0.02, "unit": "G/100 ml"}, {"measurement": "solubility in water (in words)", "setting": "[8]; listed as DSF", "result": "poorly soluble in water; also recorded: near insolubility in water"}, {"measurement": "excretion of metabolites", "setting": "[1]", "result": "the breakdown products are promptly excreted"}, {"measurement": "metabolism in the blood and liver", "setting": "[1]", "result": "very rapidly metabolized in the blood and liver"}, {"measurement": "onset of diaphoresis after ethanol challenge, Subject No. 1", "setting": "[9]; 1 G disulfiram, day 7", "result": 20, "unit": "min"}, {"measurement": "diaphoresis, Subject No. 1", "setting": "[9]; 1 G disulfiram, day 7, duration of the diaphoretic period", "result": 10, "unit": "min"}, {"measurement": "subjective effects following ethanol challenges, Subject No. 1", "setting": "[9]; 1 G disulfiram, entire four weeks", "result": "no adverse subjective effects"}, {"measurement": "subjective discomfort following ethanol challenge, Subject No. 2", "setting": "[9]; 2 G disulfiram, day 7", "result": "dizziness, facial flushing, blurred vision and headache, and their conjunctivae were observed to be injected"}, {"measurement": "subjective discomfort score, Subject No. 2, at 20 minutes", "setting": "[9]; 2 G disulfiram, day 7, 20 minutes, scale 1 Very well to 5 Terrible, 3 = A little unwell", "result": 3}, {"measurement": "subjective discomfort score, Subject No. 2, at 40 minutes", "setting": "[9]; 2 G disulfiram, day 7, 40 minutes, scale 1 Very well to 5 Terrible, 3 = A little unwell", "result": 3}, {"measurement": "effects following ethanol challenge, Subject No. 2, day 28", "setting": "[9]; 2 G disulfiram, day 28", "result": "no unpleasant symptoms"}, {"measurement": "positive results of alcohol challenges (symptoms)", "setting": "[9]; after DSF injection, human subjects", "result": "elevated skin temperatures, dizziness, facial flushing, headache, and blurring of vision"}, {"measurement": "inactivation of aldehyde dehydrogenase", "setting": "[10]", "result": "inactivating aldehyde dehydrogenase"}, {"measurement": "inactivation of aldehyde dehydrogenase", "setting": "[10]; listed as DSF", "result": "inactivates aldehyde dehydrogenase by irreversible disulfide interchange reactions with thiol groups"}, {"measurement": "peak acetaldehyde concentration in breath, Subject No. 1", "setting": "[11]; 1 G, compared to peak prior to treatment", "result": "elevated peak in Subject No. 1 on day 7"}, {"measurement": "acetaldehyde following consumption of alcohol", "setting": "[11]; FIG. 3, after injection of DSF", "result": "elevated levels of acetaldehyde"}]}]}
